ChEMBL document CHEMBL3046890, “Synthesis and Herbicidal Activity of Sulfonylureas; SL-950 and Its Related Compounds” (1995)

Experiments:
Assay type in all cases: functional
[1] = system: Elymus repens; assay: Post-emergence herbicidal activity against three to four-leaf stage Elymus repens (couch grass) assessed as efficacy of weed growth control at 60 g ai/ha under greenhouse conditions
[2] = system: Senna tora; assay: Post-emergence herbicidal activity against one-leaf stage Senna tora assessed as efficacy of weed growth control at 40 g ai/ha under greenhouse conditions
[3] = system: Cyperus microiria; assay: Post-emergence herbicidal activity against three-leaf stage Cyperus microiria assessed as efficacy of weed growth control at 80 g ai/ha under greenhouse conditions
[4] = system: Chenopodium album; assay: Post-emergence herbicidal activity against two-leaf stage Chenopodium album assessed as efficacy of weed growth control at 750 g ai/ha under greenhouse conditions
[5] = system: Solanum nigrum; assay: Post emergence herbicidal activity against four-leaf stage Solanum nigrum (black nightshade) assessed as efficacy of weed growth control at 750 g ai/ha under greenhouse conditions
[6] = system: Abutilon theophrasti; assay: Post-emergence herbicidal activity against one-leaf stage Abutilon theophrasti (velvetleaf) assessed as efficacy of weed growth control at 60 g ai/ha under greenhouse conditions
[7] = system: Cyperus microiria; assay: Post-emergence herbicidal activity against three-leaf stage Cyperus microiria assessed as efficacy of weed growth control at 60 g ai/ha under greenhouse conditions
[8] = system: Cyperus rotundus; assay: Post-emergence herbicidal activity against four to five-leaf stage Cyperus rotundus assessed as efficacy of weed growth control at 60 g ai/ha under greenhouse conditions
[9] = system: Elymus repens; assay: Post-emergence herbicidal activity against three to four-leaf stage Elymus repens (couch grass) assessed as efficacy of weed growth control at 80 g ai/ha under greenhouse conditions
[10] = system: Commelina communis; assay: Post emergence herbicidal activity against two-leaf stage Commelina communis (Asiatic dayflower) assessed as efficacy of weed growth control at 80 g ai/ha under greenhouse conditions
[11] = system: Persicaria lapathifolia; assay: Post-emergence herbicidal activity against three-leaf stage Persicaria lapathifolia assessed as efficacy of weed growth control at 60 g ai/ha under greenhouse conditions
[12] = system: Sida spinosa; assay: Post-emergence herbicidal activity against two-leaf stage Sida spinosa assessed as efficacy of weed growth control at 60 g ai/ha under greenhouse conditions
[13] = system: Cyperus rotundus; assay: Post-emergence herbicidal activity against four to five-leaf stage Cyperus rotundus assessed as efficacy of weed growth control at 40 g ai/ha under greenhouse conditions
[14] = system: Avena fatua; assay: Post emergence herbicidal activity against three-leaf stage Avena fatua assessed as efficacy of weed growth control at 750 g ai/ha under greenhouse conditions
[15] = system: Stellaria media; assay: Post-emergence herbicidal activity against eight-leaf stage Stellaria media assessed as efficacy of weed growth control at 750 g ai/ha under greenhouse conditions
[16] = system: Digitaria sanguinalis; assay: Post-emergence herbicidal activity against two-leaf stage Digitaria sanguinalis (hairy crabgrass) assessed as efficacy of weed growth control at 60 g ai/ha under greenhouse conditions
[17] = system: Eleusine indica; assay: Post emergence herbicidal activity against three-leaf stage Eleusine indica assessed as efficacy of weed growth control at 60 g ai/ha under greenhouse conditions
[18] = system: Amaranthus viridis; assay: Post-emergence herbicidal activity against three-leaf stage Amaranthus viridis assessed as efficacy of weed growth control at 750 g ai/ha under greenhouse conditions
[19] = system: Portulaca oleracea; assay: Post-emergence herbicidal activity against three-leaf stage Portulaca oleracea assessed as efficacy of weed growth control at 80 g ai/ha under greenhouse conditions
[20] = system: Persicaria lapathifolia; assay: Post-emergence herbicidal activity against three-leaf stage Persicaria lapathifolia assessed as efficacy of weed growth control at 750 g ai/ha under greenhouse conditions
[21] = system: Stellaria media; assay: Post-emergence herbicidal activity against eight-leaf stage Stellaria media assessed as efficacy of weed growth control at 40 g ai/ha under greenhouse conditions
[22] = system: Amaranthus viridis; assay: Post-emergence herbicidal activity against three-leaf stage Amaranthus viridis assessed as efficacy of weed growth control at 60 g ai/ha under greenhouse conditions
[23] = system: Cyperus rotundus; assay: Post-emergence herbicidal activity against four to five-leaf stage Cyperus rotundus assessed as efficacy of weed growth control at 80 g ai/ha under greenhouse conditions
[24] = system: Portulaca oleracea; assay: Post-emergence herbicidal activity against three-leaf stage Portulaca oleracea assessed as efficacy of weed growth control at 40 g ai/ha under greenhouse conditions
[25] = system: Avena fatua; assay: Post emergence herbicidal activity against three-leaf stage Avena fatua assessed as efficacy of weed growth control at 60 g ai/ha under greenhouse conditions
[26] = system: Cyperus microiria; assay: Post-emergence herbicidal activity against three-leaf stage Cyperus microiria assessed as efficacy of weed growth control at 750 g ai/ha under greenhouse conditions
[27] = system: Cynodon dactylon; assay: Post-emergence herbicidal activity against 15 cm leaf stage Cynodon dactylon assessed as efficacy of weed growth control at 750 g ai/ha under greenhouse conditions
[28] = system: Sorghum halepense; assay: Post emergence herbicidal activity against four to five-leaf stage Sorghum halepense (Johnson grass) assessed as efficacy of weed growth control at 60 g ai/ha under greenhouse conditions
[29] = system: Portulaca oleracea; assay: Post-emergence herbicidal activity against three-leaf stage Portulaca oleracea assessed as efficacy of weed growth control at 60 g ai/ha under greenhouse conditions
[30] = system: Cynodon dactylon; assay: Post-emergence herbicidal activity against 15 cm leaf stage Cynodon dactylon assessed as efficacy of weed growth control at 80 g ai/ha under greenhouse conditions
[31] = system: Elymus repens; assay: Post-emergence herbicidal activity against three to four-leaf stage Elymus repens (couch grass) assessed as efficacy of weed growth control at 750 g ai/ha under greenhouse conditions
[32] = system: Sida spinosa; assay: Post-emergence herbicidal activity against two-leaf stage Sida spinosa assessed as efficacy of weed growth control at 40 g ai/ha under greenhouse conditions
[33] = system: Avena fatua; assay: Post emergence herbicidal activity against three-leaf stage Avena fatua assessed as efficacy of weed growth control at 40 g ai/ha under greenhouse conditions
[34] = system: Abutilon theophrasti; assay: Post-emergence herbicidal activity against one-leaf stage Abutilon theophrasti (velvetleaf) assessed as efficacy of weed growth control at 750 g ai/ha under greenhouse conditions
[35] = system: Solanum nigrum; assay: Post emergence herbicidal activity against four-leaf stage Solanum nigrum (black nightshade) assessed as efficacy of weed growth control at 80 g ai/ha under greenhouse conditions
[36] = system: Amaranthus viridis; assay: Post-emergence herbicidal activity against three-leaf stage Amaranthus viridis assessed as efficacy of weed growth control at 80 g ai/ha under greenhouse conditions
[37] = system: Commelina communis; assay: Post emergence herbicidal activity against two-leaf stage Commelina communis (Asiatic dayflower) assessed as efficacy of weed growth control at 750 g ai/ha under greenhouse conditions
[38] = system: Stellaria media; assay: Post-emergence herbicidal activity against eight-leaf stage Stellaria media assessed as efficacy of weed growth control at 60 g ai/ha under greenhouse conditions
[39] = system: Stellaria media; assay: Post-emergence herbicidal activity against eight-leaf stage Stellaria media assessed as efficacy of weed growth control at 80 g ai/ha under greenhouse conditions
[40] = system: Capsella bursa-pastoris; assay: Post-emergence herbicidal activity against four-leafstage Capsella bursa-pastoris assessed as efficacy of weed growth control at 750 g ai/ha under greenhouse conditions
[41] = system: Eleusine indica; assay: Post emergence herbicidal activity against three-leaf stage Eleusine indica assessed as efficacy of weed growth control at 750 g ai/ha under greenhouse conditions
[42] = system: Sida spinosa; assay: Post-emergence herbicidal activity against two-leaf stage Sida spinosa assessed as efficacy of weed growth control at 80 g ai/ha under greenhouse conditions

For COc1cc(OC)nc(NC(=O)NS(=O)(=O)c2ncccc2C(=O)N(C)C)n1 [NICOSULFURON], the Efficacy [1] was 95%, the Efficacy [2] was 50% and the Efficacy [3] was 95%. It also gave an Efficacy [4] of 95%, an Efficacy [5] of 95% and an Efficacy [6] of 50%. For the same compound, the Efficacy [7] was 95%, the Efficacy [8] was 70% and the Efficacy [9] was 95%. For the same compound, the Efficacy [10] was 95%, the Efficacy [11] was 95% and the Efficacy [12] was 50%. For the same compound, the Efficacy [13] was under 50%, the Efficacy [14] was under 50% and the Efficacy [15] was 95%. It also gave an Efficacy [16] of 95%, an Efficacy [17] of 95% and an Efficacy [18] of 50%. For the same compound, the Efficacy [19] was 95%, the Efficacy [20] was 95% and the Efficacy [21] was 70%. The Efficacy [22] was 95%, the Efficacy [23] was 70% and the Efficacy [24] was 70%. It also gave an Efficacy [25] of 95%, an Efficacy [26] of 95% and an Efficacy [27] of under 50%. It also gave an Efficacy [28] of 95%, an Efficacy [29] of 95% and an Efficacy [30] of under 50%. It also gave an Efficacy [31] of under 50%, an Efficacy [32] of 50% and an Efficacy [33] of 95%. It also gave an Efficacy [34] of 95%, an Efficacy [35] of 70% and an Efficacy [36] of 95%. For the same compound, the Efficacy [37] was 95%, the Efficacy [38] was 95% and the Efficacy [39] was 95%. For the same compound, the Efficacy [40] was 95%, the Efficacy [41] was under 50% and the Efficacy [42] was 70%.
